Data on seven compounds can be found in patent US20080119463A1, “4-Anilino-3-quinolinecarbonitriles for the treatment of acute myelogenous leukemia (AML)” (Wyeth, priority 2006, published 2008).

Read-outs that look alike come from different tables or passages of the source.

Experiment [1] concerns U937 cells. Kind of experiment: proliferation assay of human AML cell line U937 (Cell Titer Glo, 3 days). The format is cell-based. The settings on record: 3 days growth, Cell Titer Glo luminescence, read-out: IC50 (μM) from proliferation assays of human AML cell lines. The protocol:
(§1) These compounds were prepared according to previously published methods (Boschelli, D. H., et. al., J. Med. Chem., 44, 3965 (2001); Boschelli, D. H., et. al., J. Med. Chem., 44, 822 (2001); Boschelli, D. H., et. al., Bioorg. Med. Chem. Lett., 13, 3797 (2003); Boschelli, D. H., et. al., J. Med. Chem., 47, 1599 (2004); and Ye, F. et al., 221st National Meeting of the American Chemical Society, San Diego, Calif. (April, 2001)), hereby incorporated by reference. For this study, 1×10^2 to 1×10^3 cells were plated in 95 μl of growth medium in each well of a 96-well microtiter plate. Compounds were added in 5 μl of medium such that the final concentration of DMSO in the medium was 0.25%. Cells were allowed to grow in a cell culture incubator (37° C.) for 3 days, at which time 100 μl of Promega Cell Titer Glo agent was added. Luminescence (lum) was measured in an Envision microplate reader. Data were processed by first obtaining % inhibition (100−(lum+cpd/lum−cpd); cpd […]). The data were then analyzed with the LSW IC50 calculation model ligand-receptor binding/hyperbolic (y=Bmax/(1+(x/IC50)). The IC50 is the concentration of test compound needed to reduce the total amount of cell proliferation by 50%.
For relevant experiments described above, standard growth medium for a particular cell line was used. For example, the growth medium for U937 cells is: RPMI 1640 supplemented with glutamine, 10% fetal bovine serum, and 50 μg/ml of gentamicin.
In general terms: Cellular ATP, detected with luciferase, serves as a proxy for viable cell number.

The subject of experiment [2] is KG-1a cells. Kind of experiment: proliferation assay of human AML cell line KG-1a (Cell Titer Glo, 3 days). The settings on record: 72 h, 3 days growth, Cell Titer Glo luminescence, read-out: IC50 (μM) from proliferation assays of human AML cell lines. The format is cell-based. The method, then: as §1
For relevant experiments described above, standard growth medium for a particular cell line was used. […]

For `COc1cc(Nc2c(C#N)cnc3cc4cc(OCCN5CCOCC5)c(OC)cc4cc23)c(Cl)cc1Cl` [4-(2,4-dichloro-5-methoxy-anilino)-7-methoxy-8-[2-(4-morpholinyl)-ethoxy]-benzo[g]-quinoline-3-carbonitrile], the IC50 in experiment [1] (Homo sapiens, U-937, 72 h) was determined as 5.1 µM.

As for `COc1cc(Nc2c(C#N)cnc3cc(-c4ccc(CN5CCN(C)CC5)cn4)ccc23)c(Cl)cc1Cl` [4-(2,4-dichloro-5-methoxy-anilino)-7-{5-[(4-methyl-piperazin-1-yl)-methyl]-2-pyridinyl]-quinoline-3-carbonitrile], the IC50 in experiment [1] (Homo sapiens, U-937, 72 h) was 2.4 µM.

Take `COc1cc(Nc2c(C#N)cnc3cc(-c4ccc(CN5CCOCC5)cn4)ccc23)c(Cl)cc1Cl` [4-(2,4-dichloro-5-methoxy-anilino)-7-{5-[(4-morpholinyl)-methyl]-2-pyridinyl]-quinoline-3-carbonitrile]: the IC50 in experiment [1] (Homo sapiens, U-937, 72 h) was found to be 0.73 µM. Take `COc1cc(Nc2c(C#N)cnc3cc4cc(OCCN5CCOCC5)c(OC)cc4cc23)c(Cl)cc1C` [4-(2-chloro-4 methyl-5-methoxy-anilino)-7-methoxy-8-[2-(4-morpholinyl)-ethoxy]-benzo[g]-quinoline-3-carbonitrile]: in experiment [1] (Homo sapiens, U-937, 72 h), the IC50 is 1.2 µM. `COc1cc2cc3c(Nc4cc(OC)c(OC)c(OC)c4)c(C#N)cnc3cc2cc1OCCN1CCOCC1` [4-(3,4,5-methoxy-anilino)-7-methoxy-8-[2-(4-morpholinyl)-ethoxy]-benzo[g]-quinoline-3-carbonitrile]: in experiment [1], the IC50 is 2.1 µM. In the case of `COc1cc(Nc2c(C#N)cnc3cc(OCCCN4CCN(C)CC4)c(OC)cc23)c(Cl)cc1Cl` [4-[(2,4-dichloro-5-methoxy-phenyl)amino]-6-methoxy-7-[3-(4-methyl-piperazin-1-yl)-propoxy]-quinoline-3-carbonitrile], the IC50 in experiment [2] was 1.11 µM. As for `COc1cc(Nc2c(C#N)cnc3cc(-c4coc(CN5CCN(C)CC5)c4)c(OC)cc23)c(Cl)cc1Cl` [4-[(2,4-dichloro-5-methoxy-phenyl)amino]-6-methoxy-7-{5-[(4-methyl-piperazin-1-yl)methyl]-3-furyl}-quinoline-3-carbonitrile], the IC50 in experiment [2] is 0.78 µM.
